This passage reports inhibition, pest or weed control and melting point results from patent US20140045873A1, “NOVEL MICROBIOCIDES” (SYNGENTA PARTICIPATIONS AG, priority 2010, published 2014).

In series [1] the test system is Gaeumannomyces graminis. Briefly: Gaeumannomyces graminis / liquid culture (take-all of cereals). It counts as cell-based. Conditions: 200 ppm, liquid culture, PDB, 24° C., 4-5 days after application, read-out: control of Gaeumannomyces graminis (inhibition of growth, photometric).
In series [2] the test system is Botryotinia fuckeliana (Botrytis cinerea). Briefly: Botryotinia fuckeliana (Botrytis cinerea) / liquid culture (gray mould). It is filed as cell-based. The conditions noted are these: Vogels broth, 24° C., 3-4 days after application, read-out: control of Botryotinia fuckeliana (inhibition of growth, photometric). From the text: Botryotinia Fuckeliana (Botrytis cinerea)/Liquid Culture (Gray Mould): Conidia of the fungus from cryogenic storage were directly mixed into nutrient broth (Vogels broth). […].45

In series [3] the test system is Puccinia recondita f. sp. tritici. The conditions noted are these: in Triticum aestivum, foliar, read-out: control of Puccinia recondita f. sp. tritici (percent disease control compared to untreated).
In series [4] the test system is Thanatephorus cucumeris (Rhizoctonia solani). Conditions: read-out: control of Thanatephorus cucumeris (inhibition of growth, photometric).
For series [5], the system named is Mycosphaerella arachidis (Cercospora arachidicola). Briefly: Mycosphaerella arachidis (Cercospora arachidicola) / liquid culture (early leaf spot). It counts as cell-based. The conditions noted are these: 200 ppm, liquid culture, PDB, 24° C., 4-5 days after application, read-out: control of Mycosphaerella arachidis (inhibition of growth, photometric).
In series [6] the test system is Monographella nivalis (Microdochium nivale). Nature of the series: Monographella nivalis (Microdochium nivale) / liquid culture (foot rot cereals). It counts as cell-based. The conditions noted are these: PDB, 24° C., 4-5 days after application, read-out: control of Monographella nivalis (inhibition of growth, photometric).
In series [7] the test system is Mycosphaerella graminicola (Septoria tritici). Briefly: Mycosphaerella graminicola (Septoria tritici) / liquid culture (Septoria blotch). Conditions: Zymoseptoria tritici; 200 ppm, liquid culture, PDB, 24° C., 4-5 days after application; read-out: control of Mycosphaerella graminicola (inhibition of growth, photometric). It is filed as cell-based.
Series [8] concerns Puccinia recondita f. sp. tritici. The conditions noted are these: in Triticum aestivum, foliar, read-out: control of Puccinia recondita f. sp. tritici (percent disease control compared to untreated). This is another data set of the same source.
In series [9] the test system is Pyrenophora teres. The conditions noted are these: in Hordeum vulgare, foliar, read-out: control of Pyrenophora teres (disease control compared to untreated).
Series [10] concerns Phaeosphaeria nodorum (Septoria nodorum). Conditions: Parastagonospora nodorum, in Triticum aestivum, foliar, read-out: control of Phaeosphaeria nodorum (percent disease control compared to untreated).
Series [11] has as its system Glomerella lagenarium (Colletotrichum lagenarium). Nature of the series: Glomerella lagenarium (Colletotrichum lagenarium) / liquid culture (anthracnose). Conditions: Colletotrichum orbiculare; 200 ppm, liquid culture, PDB, 24° C., 3-4 days after application; read-out: control of Glomerella lagenarium (inhibition of growth, photometric). It is filed as cell-based.
Series [12] relates to Pythium ultimum. Briefly: Pythium ultimum / liquid culture (seedling damping off). It is filed as cell-based. Conditions: Globisporangium ultimum, potato dextrose broth, 24° C., 2-3 days after application, read-out: control of Pythium ultimum (inhibition of growth, photometric).

Like-named read-outs stand apart in the source and are kept apart here.

As usually defined, the inhibition is the percentage by which the read-out fell short of the control. The term melting point denotes the temperature, or range, at which the solid turns liquid.

`COc1cc(C)nc(-c2cccc(CCCO/N=C(\C)c3cccc(C)n3)n2)c1` [P.11, 1-(6-methyl-pyridin-2-yl)-ethanone-O-[3-(4′-methoxy-6′-methyl-[2,2]bipyridinyl-6-yl)-propyl]-oxime]: the melting point fell in the range of 84 to 86 °C. In addition, in [1], the inhibition at 200 ppm was no less than 80%. In [2], the inhibition at 200 ppm was no less than 80%. Besides, in [3], the pest or weed control at 200 ppm was no less than 80%. The inhibition at 200 ppm in series [4] was no less than 80%. Further, the inhibition at 200 ppm in [5] is no less than 80%. Moreover, in [6], the inhibition at 200 ppm was no less than 80%. Also, the inhibition at 200 ppm in series [7] is no less than 80%. In addition, in series [8], the pest or weed control at 200 ppm is no less than 80%. In series [9], the pest or weed control at 200 ppm was no less than 80%. Further, the pest or weed control at 200 ppm in series [10] was no less than 80%. Further, in series [11], the inhibition at 200 ppm is no less than 80%.
Compound `CSc1cc(C)nc(-c2cccc(CCCO/N=C(\C)c3cccc(C)n3)n2)c1` [P.17] came in with a melting point of 76 to 77 °C. Further, in [1], the inhibition at 200 ppm is no less than 80%. Also, the pest or weed control at 200 ppm in [3] is no less than 80%. Moreover, the inhibition at 200 ppm in series [12] is no less than 80%. The inhibition at 200 ppm in series [4] was no less than 80%. Also, the inhibition at 200 ppm in [5] is no less than 80%. Also, the inhibition at 200 ppm in [6] was no less than 80%. For the same compound, in series [7], the inhibition at 200 ppm is no less than 80%. Also, the pest or weed control at 200 ppm in series [8] was no less than 80%. Also, the pest or weed control at 200 ppm in series [9] was no less than 80%. Also, the pest or weed control at 200 ppm in series [10] is no less than 80%. Further, the inhibition at 200 ppm in series [11] is no less than 80%.
